Results as given in article PMC3710446 (Journal of pharmaceutical sciences, 2011).

Experiments:
SOPT2 [1] = test: Uptake of [3H]DADLE in RGC-5 cells; details: DADLE 25 nM, 30 min of incubation
SOPT1 = test: Uptake of [3H]deltorphin II in RGC-5 cells and influence of tripeptides; details: RGC-5 cells, deltorphin II 25 nM
SOPT2 [2] = test: Influence of compounds on [3H]DADLE uptake in RGC-5 cells; assay type: cell-based, rat; details: compound 1 mM; for [3H]DADLE uptake in the presence of compound, % of control (Table 2): [3H]DADLE 10 nM, 30 min, control = 100; for stimulation of [3H]DADLE uptake: p < 0.001
RGC-5 cells = test: Uptake of FITC-labeled HIV-1 Tat47–57 in RGC-5 cells; assay type: cell-based, rat; details: FITC-Tat 25 nM, 15 min, NaCl-containing buffer, confocal microscopy

With CC(C)C[C@@H](NC(=O)[C@H](Cc1ccccc1)NC(=O)CNC(=O)[C@@H](C)NC(=O)[C@@H](N)Cc1ccc(O)cc1)C(=O)O [DADLE, [D-Ala^2, D-Leu^5]-Enkephalin] the “uptake in the presence of Na+ relative to uptake in the absence of Na+” value (SOPT2 [1]) was 2–3 times.
CC(C)[C@H](NC(=O)[C@H](CCC(=O)O)NC(=O)[C@H](Cc1ccccc1)NC(=O)[C@@H](C)NC(=O)[C@@H](N)Cc1ccc(O)cc1)C(=O)N[C@H](C(=O)NCC(N)=O)C(C)C [Deltorphin II] was tested, and the “uptake of deltorphin II” value (SOPT1; absence of Na+) was 1.1 ± 0.1 pmol/mg of protein/30 min and the “uptake of deltorphin II” value (SOPT1; presence of Na+) was 3.6 ± 0.2 pmol/mg of protein/30 min.
In the case of C=CCN1CC[C@]23c4c5ccc(O)c4O[C@H]2C(=O)CC[C@@]3(O)[C@H]1C5 [Naloxone, naloxone], the “[3H]DADLE uptake in the presence of compound, % of control (Table 2)” value (SOPT2 [2]) is reported as 133% and the “stimulation of [3H]DADLE uptake” value (SOPT2 [2]) is reported as 33%.
O=C1CC[C@@]2(O)[C@H]3Cc4ccc(O)c5c4[C@@]2(CCN3CC2CC2)[C@H]1O5 [Naltrexone, naltrexone] was tested, and the “[3H]DADLE uptake in the presence of compound, % of control (Table 2)” value (SOPT2 [2]) was 150% and the “stimulation of [3H]DADLE uptake” value (SOPT2 [2]) was 50%.
“FITC-Tat47–57: Fluorescein isothiocyanate-conjugated Tat47–57 peptide” was tested, and the “cellular uptake of FITC-labeled peptide (cell-associated green fluorescence)” value (RGC-5 cells) was “enters RGC-5 cells”.
